Activity calls are given as the source filed them. The calls are words filed in the database; no cut-off is given here.
Columns and labels:
[1] = system: HEK293; assay: Potentiation of doxorubicin-induced cytotoxicity against human Flp-In-293 cells at 2.5 uM by SRB assay relative to control; type: functional
[2] = system: HEK293; assay: Potentiation of paclitaxel-induced cytotoxicity against human Flp-In-293 cells at 2.5 uM by SRB assay relative to control; type: functional
[3] = target: T1, ATP-dependent translocase ABCB1 (Homo sapiens, UniProt P08183); assay: Inhibition of ABCB1 (unknown origin) expressed in Flp-In-293 cells assessed as increase in calcein-AM uptake at 5 uM preincubated for 30 mins followed by calcein-AM addition measured after 30 mins by fluorescence spectrometric method relative to control; type: cell-based; details: 0.5 h
T1 sequence (P08183 whole entry): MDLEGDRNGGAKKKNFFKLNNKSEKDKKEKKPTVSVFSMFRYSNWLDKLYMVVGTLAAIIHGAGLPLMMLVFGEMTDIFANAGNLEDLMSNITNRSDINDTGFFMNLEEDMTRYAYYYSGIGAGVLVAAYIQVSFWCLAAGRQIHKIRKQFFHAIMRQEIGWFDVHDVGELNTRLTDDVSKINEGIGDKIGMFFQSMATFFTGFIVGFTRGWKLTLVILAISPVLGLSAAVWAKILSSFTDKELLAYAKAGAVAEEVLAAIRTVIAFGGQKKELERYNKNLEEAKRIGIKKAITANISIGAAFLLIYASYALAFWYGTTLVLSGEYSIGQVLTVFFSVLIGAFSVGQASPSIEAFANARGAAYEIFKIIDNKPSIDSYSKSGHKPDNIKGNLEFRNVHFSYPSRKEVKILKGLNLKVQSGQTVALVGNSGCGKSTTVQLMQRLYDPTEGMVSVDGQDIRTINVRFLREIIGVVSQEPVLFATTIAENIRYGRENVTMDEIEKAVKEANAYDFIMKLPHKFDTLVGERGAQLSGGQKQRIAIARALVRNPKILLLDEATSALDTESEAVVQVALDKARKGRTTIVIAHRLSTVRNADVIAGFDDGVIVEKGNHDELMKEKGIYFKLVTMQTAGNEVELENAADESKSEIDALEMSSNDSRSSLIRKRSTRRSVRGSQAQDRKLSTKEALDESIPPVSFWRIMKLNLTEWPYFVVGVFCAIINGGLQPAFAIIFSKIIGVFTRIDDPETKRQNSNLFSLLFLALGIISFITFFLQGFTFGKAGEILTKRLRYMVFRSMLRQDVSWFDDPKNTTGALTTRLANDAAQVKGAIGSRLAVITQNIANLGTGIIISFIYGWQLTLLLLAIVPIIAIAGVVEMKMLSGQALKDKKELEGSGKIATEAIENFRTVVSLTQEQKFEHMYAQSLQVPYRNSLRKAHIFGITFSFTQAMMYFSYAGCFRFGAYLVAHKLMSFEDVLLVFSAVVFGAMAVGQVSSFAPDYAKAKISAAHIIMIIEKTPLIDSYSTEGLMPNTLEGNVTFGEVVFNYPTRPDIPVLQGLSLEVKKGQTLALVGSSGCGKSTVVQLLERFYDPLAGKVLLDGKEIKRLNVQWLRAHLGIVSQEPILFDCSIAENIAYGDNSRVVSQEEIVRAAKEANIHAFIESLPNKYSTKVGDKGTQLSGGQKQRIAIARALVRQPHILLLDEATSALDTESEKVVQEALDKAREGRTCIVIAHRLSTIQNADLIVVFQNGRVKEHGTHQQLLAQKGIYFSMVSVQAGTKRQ

[4] = system: HEK293; assay: Potentiation of vincristine-induced cytotoxicity against human Flp-In-293 cells at 1 uM by SRB assay relative to control; type: functional
[5] = species on record: Homo sapiens; assay: Inhibition of P-gp in human KBVIN cells assessed as potentiation of vincristine-induced cytotoxicity at 2.5 uM by SRB assay relative to control; type: cell-based
[6] = system: HEK293; assay: Effect on ABCB1 mRNA expression in human Flp-In-293 cells at 5 uM after 72 hrs by qRT-PCR method; type: functional, cell-based
[7] = system: HEK293; assay: Potentiation of paclitaxel-induced cytotoxicity against human Flp-In-293 cells at 1 uM by SRB assay relative to control; type: functional
[8] = target: T1, ATP-dependent translocase ABCB1; assay: Inhibition of ABCB1 (unknown origin) expressed in human Flp-In-293 cells assessed as potentiation of paclitaxel-induced cytotoxicity at 2.5 uM by SRB assay relative to control; type: cell-based
[9] = species on record: Homo sapiens; assay: Inhibition of P-gp in human KBVIN cells assessed as potentiation of vincristine-induced cytotoxicity by SRB assay; type: cell-based
[10] = species on record: Homo sapiens; assay: Inhibition of P-gp in human HeLaS3 cells assessed as potentiation of paclitaxel-induced cytotoxicity by SRB assay; type: cell-based
[11] = target: T1, ATP-dependent translocase ABCB1; assay: Inhibition of ABCB1 (unknown origin) expressed in human Flp-In-293 cells assessed as potentiation of vincristine-induced cytotoxicity by SRB assay; type: cell-based
[12] = species on record: Homo sapiens; assay: Inhibition of P-gp in human HeLaS3 cells assessed as potentiation of vincristine-induced cytotoxicity at 1 uM by SRB assay relative to control; type: cell-based
[13] = target: T1, ATP-dependent translocase ABCB1; assay: Inhibition of ABCB1 (unknown origin) expressed in human Flp-In-293 cells assessed as potentiation of doxorubicin-induced cytotoxicity by SRB assay; type: cell-based
[14] = species on record: Homo sapiens; assay: Inhibition of P-gp in human HeLaS3 cells assessed as potentiation of paclitaxel-induced cytotoxicity at 2.5 uM by SRB assay relative to control; type: cell-based
[15] = target: T1, ATP-dependent translocase ABCB1; assay: Inhibition of ABCB1 (unknown origin) expressed in human Flp-In-293 cells assessed as potentiation of paclitaxel-induced cytotoxicity by SRB assay; type: cell-based
[16] = system: HEK293; assay: Potentiation of doxorubicin-induced cytotoxicity against human Flp-In-293 cells at 1 uM by SRB assay relative to control; type: functional
[17] = system: HEK293; assay: Potentiation of vincristine-induced cytotoxicity against human Flp-In-293 cells at 2.5 uM by SRB assay relative to control; type: functional
[18] = target: T1, ATP-dependent translocase ABCB1; assay: Inhibition of ABCB1 (unknown origin) expressed in human Flp-In-293 cells assessed as potentiation of doxorubicin-induced cytotoxicity at 1 uM by SRB assay relative to control; type: cell-based
[19] = target: T1, ATP-dependent translocase ABCB1; assay: Inhibition of ABCB1 (unknown origin) expressed in Flp-In-293 cells assessed as increase in calcein-AM uptake at 10 uM preincubated for 30 mins followed by calcein-AM addition measured after 30 mins by fluorescence spectrometric method relative to control; type: cell-based; details: 0.5 h
[20] = Cytotoxicity against human KBVIN assessed as reduction in cell viability by SRB assay; type: cell-based
[21] = species on record: Homo sapiens; assay: Inhibition of P-gp in human HeLaS3 cells assessed as potentiation of doxorubicin-induced cytotoxicity at 2.5 uM by SRB assay relative to control; type: cell-based
[22] = species on record: Homo sapiens; assay: Inhibition of P-gp in human HeLaS3 cells assessed as potentiation of vincristine-induced cytotoxicity at 2.5 uM by SRB assay relative to control; type: cell-based
[23] = species on record: Homo sapiens; assay: Inhibition of P-gp in human KBVIN cells assessed as potentiation of paclitaxel-induced cytotoxicity by SRB assay; type: cell-based
[24] = system: HEK293; assay: Cytotoxicity against human Flp-In-293 cells expressing MDR1 assessed as reduction in cell viability by SRB assay; type: ADME, cell-based
[25] = species on record: Homo sapiens; assay: Inhibition of P-gp in human KBVIN cells assessed as potentiation of paclitaxel-induced cytotoxicity at 2.5 uM by SRB assay relative to control; type: cell-based
[26] = species on record: Homo sapiens; assay: Inhibition of P-gp in human KBVIN cells assessed as potentiation of doxorubicin-induced cytotoxicity at 1 uM by SRB assay relative to control; type: cell-based
[27] = system: HEK293; assay: Effect on ABCB1 mRNA expression in human Flp-In-293 cells expressing ABCB1 at 5 uM after 72 hrs by qRT-PCR method; type: functional, cell-based
[28] = species on record: Homo sapiens; assay: Inhibition of P-gp in human KBVIN cells assessed as potentiation of doxorubicin-induced cytotoxicity at 2.5 uM by SRB assay relative to control; type: cell-based
[29] = target: T1, ATP-dependent translocase ABCB1; assay: Inhibition of ABCB1 (unknown origin) expressed in human Flp-In-293 cells assessed as potentiation of vincristine-induced cytotoxicity at 2.5 uM by SRB assay relative to control; type: cell-based
[30] = species on record: Homo sapiens; assay: Inhibition of P-gp in human HeLaS3 cells assessed as potentiation of paclitaxel-induced cytotoxicity at 1 uM by SRB assay relative to control; type: cell-based
[31] = species on record: Homo sapiens; assay: Inhibition of P-gp in human KBVIN cells assessed as potentiation of paclitaxel-induced cytotoxicity at 1 uM by SRB assay relative to control; type: cell-based
[32] = species on record: Homo sapiens; assay: Inhibition of P-gp in human HeLaS3 cells assessed as potentiation of doxorubicin-induced cytotoxicity by SRB assay; type: cell-based
[33] = species on record: Homo sapiens; assay: Inhibition of P-gp in human KBVIN cells assessed as potentiation of doxorubicin-induced cytotoxicity by SRB assay; type: cell-based
[34] = system: HeLa S3; assay: Cytotoxicity against human HeLaS3 assessed as reduction in cell viability by SRB assay; type: cell-based
[35] = target: T1, ATP-dependent translocase ABCB1; assay: Inhibition of ABCB1 (unknown origin) expressed in human Flp-In-293 cells assessed as potentiation of doxorubicin-induced cytotoxicity at 2.5 uM by SRB assay relative to control; type: cell-based
[36] = target: T1, ATP-dependent translocase ABCB1; assay: Inhibition of ABCB1 (unknown origin) expressed in human Flp-In-293 cells assessed as potentiation of vincristine-induced cytotoxicity at 1 uM by SRB assay relative to control; type: cell-based
[37] = system: HEK293; assay: Cytotoxicity against human Flp-In-293 cells assessed as reduction in cell viability by SRB assay; type: cell-based
[38] = species on record: Homo sapiens; assay: Inhibition of P-gp in human HeLaS3 cells assessed as potentiation of vincristine-induced cytotoxicity by SRB assay; type: cell-based
[39] = species on record: Homo sapiens; assay: Inhibition of P-gp in human KBVIN cells assessed as potentiation of vincristine-induced cytotoxicity at 1 uM by SRB assay relative to control; type: cell-based
[40] = target: T1, ATP-dependent translocase ABCB1; assay: Inhibition of ABCB1 (unknown origin) expressed in human Flp-In-293 cells assessed as potentiation of paclitaxel-induced cytotoxicity at 1 uM by SRB assay relative to control; type: cell-based
[41] = species on record: Homo sapiens; assay: Inhibition of P-gp in human HeLaS3 cells assessed as potentiation of doxorubicin-induced cytotoxicity at 1 uM by SRB assay relative to control; type: cell-based
[42] = target: T1, ATP-dependent translocase ABCB1; assay: Potency index, ratio of compound effect to verapamil effect for inhibition of ABCB1 (unknown origin) expressed in Flp-In-293 cells assessed as increase in calcein-AM uptake at 5 uM preincubated for 30 mins followed by calcein-AM addition measured after 30 mins by fluorescence spectrometric method; type: cell-based; details: 0.5 h

COc1ccc(-c2cc(OCCN3CCCC3)c3c(-c4cccs4)c(N)oc3c2)cc1
fold change (FC) [1]: 0.97 | fold change (FC) [2]: 1.39 | fold change (FC) [3]: 6.78 | fold change (FC) [4]: 1.95 | fold change (FC) [5]: 260 | Activity [6]: inactive | fold change (FC) [7]: 0.98 | fold change (FC) [8]: 10.03 | inhibition [9]: Dose-dependent effect | inhibition [10]: Dose-dependent effect | inhibition (INH) [11]: Dose-dependent effect | fold change (FC) [12]: 1.08 | inhibition (INH) [13]: Dose-dependent effect | fold change (FC) [14]: 4.06 | inhibition (INH) [15]: Dose-dependent effect | fold change (FC) [16]: 0.98 | fold change (FC) [17]: 7.15 | fold change (FC) [18]: 2.65 | fold change (FC) [19]: 10.4 | IC50 [20]: 35.5 µM | fold change (FC) [21]: 1.47 | fold change (FC) [22]: 1.13 | inhibition [23]: Dose-dependent effect | IC50 [24]: 36.4 µM | fold change (FC) [25]: 14.7 | fold change (FC) [26]: 1.37 | Activity [27]: inactive | fold change (FC) [28]: 1.94 | fold change (FC) [29]: 9.07 | fold change (FC) [30]: 3.69 | fold change (FC) [31]: 2.8 | inhibition [32]: Dose-dependent effect | inhibition [33]: Dose-dependent effect | IC50 [34]: 38.1 µM | fold change (FC) [35]: 6.14 | fold change (FC) [36]: 2.58 | IC50 [37]: 33.5 µM | inhibition [38]: Dose-dependent effect | fold change (FC) [39]: 177 | fold change (FC) [40]: 1.18 | fold change (FC) [41]: 1.1

CCN(CC)CCOc1cc(-c2ccc(OC)c(OC)c2)cc2oc(N)c(-c3cccs3)c12
fold change (FC) [1]: 1.09 | fold change (FC) [2]: 1.47 | fold change (FC) [3]: 11.12 | fold change (FC) [4]: 7.01 | fold change (FC) [5]: 246 | Activity [6]: inactive | fold change (FC) [7]: 1.35 | fold change (FC) [8]: 13.68 | inhibition [9]: Dose-dependent effect | inhibition [10]: Dose-dependent effect | inhibition (INH) [11]: Dose-dependent effect | fold change (FC) [12]: 1.23 | inhibition (INH) [13]: Dose-dependent effect | fold change (FC) [14]: 3.85 | inhibition (INH) [15]: Dose-dependent effect | fold change (FC) [16]: 1.03 | fold change (FC) [17]: 8.57 | fold change (FC) [18]: 3.17 | fold change (FC) [19]: 11.34 | IC50 [20]: 18.5 µM | fold change (FC) [21]: 0.93 | fold change (FC) [22]: 1.21 | inhibition [23]: Dose-dependent effect | IC50 [24]: 31.2 µM | fold change (FC) [25]: 38.7 | Ratio [42]: 3.6 | fold change (FC) [26]: 1.39 | Activity [27]: inactive | fold change (FC) [28]: 5.16 | fold change (FC) [29]: 17.95 | fold change (FC) [30]: 5.49 | fold change (FC) [31]: 5.11 | inhibition [32]: Dose-dependent effect | inhibition [33]: Dose-dependent effect | IC50 [34]: 21.5 µM | fold change (FC) [35]: 26.43 | fold change (FC) [36]: 3.37 | IC50 [37]: 34.9 µM | inhibition [38]: Dose-dependent effect | fold change (FC) [39]: 240 | fold change (FC) [40]: 2.49 | fold change (FC) [41]: 0.8

COc1ccc(-c2cc(OCCN3CCCC3)c3c(-c4cccs4)c(N)oc3c2)cc1OC
fold change (FC) [1]: 0.96 | fold change (FC) [2]: 1.38 | fold change (FC) [3]: 8.52 | fold change (FC) [4]: 4.25 | fold change (FC) [5]: 34.2 | Activity [6]: inactive | fold change (FC) [7]: 0.92 | fold change (FC) [8]: 2.65 | inhibition [9]: Dose-dependent effect | inhibition [10]: Dose-dependent effect | inhibition (INH) [11]: Dose-dependent effect | fold change (FC) [12]: 1.17 | inhibition (INH) [13]: Dose-dependent effect | fold change (FC) [14]: 3.97 | inhibition (INH) [15]: Dose-dependent effect | fold change (FC) [16]: 0.91 | fold change (FC) [17]: 8.36 | fold change (FC) [18]: 2.78 | fold change (FC) [19]: 9.12 | IC50 [20]: 36.3 µM | fold change (FC) [21]: 2.71 | fold change (FC) [22]: 1.08 | inhibition [23]: Dose-dependent effect | IC50 [24]: 37 µM | fold change (FC) [25]: 9.27 | fold change (FC) [26]: 1.51 | Activity [27]: inactive | fold change (FC) [28]: 1.88 | fold change (FC) [29]: 5.92 | fold change (FC) [30]: 3.8 | fold change (FC) [31]: 2.55 | inhibition [32]: Dose-dependent effect | inhibition [33]: Dose-dependent effect | IC50 [34]: 38 µM | fold change (FC) [35]: 3.95 | fold change (FC) [36]: 1.69 | IC50 [37]: 36.5 µM | inhibition [38]: Dose-dependent effect | fold change (FC) [39]: 25.7 | fold change (FC) [40]: 1.23 | fold change (FC) [41]: 0.9
